Here are results for four compounds from patent US4632990A, “Ergoline carboxamides” (Farmitalia Carlo Erba S.p.A., priority 1982, dated 1986).

The assay deals with egg-nidation in rats. Kind of assay: Nidation inhibition in rats (egg-nidation inhibitory action, indirect measure of anti-prolactin activity). It is filed as in vivo, Sprague Dowley rats. To be noted: Rattus norvegicus, po, read-out: Nidation inhibition in rats, ED50. As to the method:
Pregnant Sprague Dowley rats weighing 200-250 g were used. The compounds to be tested, dissolved in diluted mineral acids, were administered orally to groups from six to eight rats on day 5 of pregnancy. The animals were sacrificed on day 14 and the uteri were examined. The absence of implantation sites was taken as the criterion of anti-prolactin activity. Several doses were tested for the ED50 evaluation. As reference standard Bromocryptine was used.

[1] abbreviates: pregnant rats, given on day 5 of pregnancy, absence of implantation sites on day 14.

Like-named read-outs stand apart in the source and are kept apart here.

A word on the ED50: it is the dose at which the effect has come halfway, by size or by number of responders. On to `Cc1cc(NC(=O)[C@@H]2C[C@@H]3c4cccc5[nH]c(C)c(c45)C[C@H]3N(C)C2)nc(C)n1` [Example 4, N-(2',6'-dimethyl-4'-pyrimidyl)-2,6-dimethylergoline-8β-carboxamide], for which the median effective dose (ED50) under setting [1] is 0.5 to 1 mg/kg.

Consider `Cc1cc(NC(=O)[C@@H]2C[C@@H]3c4cccc5[nH]cc(c45)C[C@H]3N(C)C2)nc(C)n1` [Example 1, N-(2', 6'-dimethyl-4'-pyrimidyl)-6-methylergoline-8β-carboxamide], for which the median effective dose (ED50) under setting [1] came out at 1.8 mg/kg.

Turning to `CCCN1C[C@H](C(=O)Nc2cc(C)nc(C)n2)C[C@@H]2c3cccc4[nH]cc(c34)C[C@H]21` [Example 5, N-(2',6'-dimethyl-4'-pyrimidyl)-6-propylergoline-8β-carboxamide], under setting [1], the 50% effective dose (ED50) was determined as 0.3 mg/kg.

On to `CC(C)C[C@H]1C(=O)N2CCC[C@H]2[C@]2(O)O[C@](NC(=O)[C@@H]3C=C4c5cccc6[nH]c(Br)c(c56)C[C@H]4N(C)C3)(C(C)C)C(=O)N12` [2-bromo-α-ergocryptine, reference compound], for which the ED50 was 5.7 mg/kg.
